From patent publication US9315489B2, “Compounds and compositions for inhibiting the activity of ABL1, ABL2 and BCR-ABL1” (Novartis AG, priority 2012, dated 2016)
Where two headings read alike, the source gives them in different places.

How the values were obtained:
[1] = tested on: Ba/F3-BCR-ABL1-T315I cells; experiment: Ba/F3-BCR-ABL1-T315I cellular proliferation assay; assay type: cell-based, murine; conditions: Mus musculus, read-out: Ba/F3-BCR-ABL1-T315I IC50
Description: The murine bone marrow-derived cell line Ba/F3 was used to generate the appropriate cell line models. Ba/F3 cells were obtained from the German Collection of Microorganisms and Cell Cultures (DSMZ, Braunschweig and DSMZ No. ACC 300). […] These cells are referred to as Ba/F3-WT.
To generate Ba/F3 cells that depend on BCR-ABL1 expression for growth and survival, Ba/F3 cells were engineered to express BCR-ABL1 using retroviral transduction with a MSCV based retroviral vector containing a p210 BCR-ABL1expression cassette. When grown in the absence of IL-3, the proliferation of the cells is dependent on the expression of BCR-ABL1. (Daley, G. Q. and Baltimore, D. Transformation of an interleukin 3-dependent hematopoietic cell line by the chronic myeloid leukemia-specific p210 BCR-ABL1 protein. PNAS 1988; 85:9312-9316). These cells are referred to as Ba/F3-BCR-ABL1-WT. A similar approach was used to generate Ba/F3 cells that depend on a BCR-ABL1 variant in which threonine 315 is replaced with isoleucine. These cells are referred to as Ba/F3-BCR-ABL1-T3151.
Ba/F3-WT cells were maintained in RPMI1640 media with L-glutamine, HEPES (Lonza), 10% FBS (Gibco) and 5 ng/ml IL-3 (Calbiochem). Ba/F3-BCR-ABL1-WT cells and Ba/F3-BCR-ABL1-T3151 cells were maintained in RPMI1640 media with L-glutamine, HEPES (Lonza) and 10% FBS (Gibco).
For each cell line, the cell density was adjusted to 50 000 cells/mL and 50 μL (2500 cells) added per well of a 384-well assay plate.
Test compounds were resuspended in DMSO at a concentration of 10 mM. A serial three-fold dilution of each compound with DMSO was performed in 384-well plates using the Janus Liquid Dispenser (PerkinElmer). Compound was delivered to the assay plates containing 2500 cells in a 50 μL volume via Acoustic delivery from an ATS-100 (EDC). For Ba/F3-BCR-ABL1-WT cell assays, […] of each compound dilution was transferred to the assay plate for final assay concentrations of 0.4 μM, 0.13 μM, 0.044 μM, 0.015 μM, 0.005 μM, 0.001 μM, 0.00033 μM, 0.00011 μM, 0.000037 μM, 0.000012 μM. For Ba/F3-WT and Ba/F3-BCR-ABL1-T315I cell assays, […] of each compound dilution was transferred to the assay plate for final assay concentrations of 10 μM, 3.33 μM, 1.11 μM, 0.37 μM, 0.12 μM, 0.041 μM, 0.014 μM, 0.0046 μM, 0.0015 μM, 0.00051 μM.
Cells were incubated at 37° C. in a humidified environment with 5% carbon dioxide for 48 hours. Britelite plus solution (Perkin Elmer) was prepared according to the manufacturer's instructions and 25 μL added to each well of the assay plate. Plates were incubated for 3-5 minutes and the luminescence detected on an EnVision Multimode plate reader (Perkin Elmer). The degree of luminescence correlates with the number of cells in each well. The effect of each inhibitor concentration can therefore be calculated and IC50 values generated.

Ba/F3-BCR-ABL1-WT cells = experiment: Ba/F3-BCR-ABL1-WT cellular proliferation assay; assay type: cell-based, murine; conditions: Mus musculus, read-out: Ba/F3-BCR-ABL1-WT IC50
ABL1 (64-515) [2] = molecular target: T1, ABL1 (64-515) (Homo sapiens (Human), UniProt P00519); experiment: Caliper ABL1 (64-515) assay (microfluidic mobility shift); assay type: biochemical
ABL1 (64-515) [3] = molecular target: T1, ABL1 (64-515); experiment: Radio ABL1 (64-515) assay (radiometric filter-binding); assay type: biochemical
[4] = Compound concentration in mouse brain and plasma; assay type: in vivo; conditions: 5 minutes after a single intravenous injection of 1 mg/kg in mice; for Kp at 5 min / concentration at 5 min: mouse; for Kp at 5 min: brain/plasma, read-out: Mean Ratio (brain/plasma); for concentration at 5 min: plasma, read-out: Mean blood (drug concentration in plasma)

T1 sequence (P00519 64-515): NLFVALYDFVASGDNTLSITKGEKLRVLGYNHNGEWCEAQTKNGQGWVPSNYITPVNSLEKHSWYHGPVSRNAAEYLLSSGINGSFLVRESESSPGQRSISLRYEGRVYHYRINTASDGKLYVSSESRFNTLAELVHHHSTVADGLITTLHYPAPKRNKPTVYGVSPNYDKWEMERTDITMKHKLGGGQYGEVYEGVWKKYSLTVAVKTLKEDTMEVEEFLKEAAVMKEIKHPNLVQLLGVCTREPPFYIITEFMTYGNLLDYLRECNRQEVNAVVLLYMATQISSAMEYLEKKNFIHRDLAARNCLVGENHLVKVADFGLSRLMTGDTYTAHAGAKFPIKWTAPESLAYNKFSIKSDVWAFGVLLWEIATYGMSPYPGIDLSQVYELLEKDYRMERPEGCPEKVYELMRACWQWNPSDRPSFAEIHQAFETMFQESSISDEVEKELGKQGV

Structure (SMILES) | IC50 ([1]; 48 hours) [nM] | IC50 (Ba/F3-BCR-ABL1-WT cells; 48 hours) [nM] | IC50 (ABL1 (64-515) [2]) [nM] | IC50 (ABL1 (64-515) [3]) [nM] | also measured
O=C(Nc1ccc(OC(F)(F)Cl)cc1)c1cnc(Cl)c(-c2cncc(F)c2)c1 [Example 78, 2-Chloro-N-(4-(chlorodifluoromethoxy)phenyl)-5′-fluoro-[3,3′-bipyridine]-5-carboxamide] | 408 | 7 | 3.9 |  | 
O=C(Nc1ccc(OC(F)(F)Cl)cc1)c1cnc(Cl)c(-c2cncnc2)c1 [Example 76, 6-Chloro-N-(4-(chlorodifluoromethoxy)phenyl)-5-(pyrimidin-5-yl)nicotinamide] | 61 | 2 | 2.9 |  | 
O=C(Nc1ccc(OC(F)(F)Cl)cc1)c1cccc(-c2cncnc2)c1 [Example 10, N-(4-(Chlorodifluoromethoxy)phenyl)-3-(pyrimidin-5-yl)benzamide] | 400 | 2.1 |  | 9.5 | Mean brain (drug concentration in brain) [4]: 4093 pmol/g; Kp at 5 min [4]: 3.24; concentration at 5 min [4]: 1260 nM
COC(=O)c1ccc(C(=O)Nc2ccc(OC(F)(F)F)cc2)cc1-c1cncnc1 [Example 68, Methyl 2-(pyrimidin-5-yl)-4-((4-(trifluoromethoxy)phenyl)carbamoyl)benzoate] | 177 |  | 1.6 | < 3 | 
O=C(Nc1ccc(OC(F)(F)F)cc1)c1cnc(OCCO)c(-c2cncnc2)c1 [Example 52, 6-(2-hydroxyethoxy)-5-(pyrimidin-5-yl)-N-(4-(trifluoromethoxy)phenyl)nicotinamide] | 499 |  | 23 | 23 | 
CC(C)(C#N)c1ncc(C(=O)Nc2ccc(OC(F)(F)F)cc2)cc1-c1cncnc1 [Example 47, 6-(2-Cyanopropan-2-yl)-5-(pyrimidin-5-yl)-N-(4-(trifluoromethoxy)phenyl)nicotinamide] | 736 |  |  |  | 
O=C(Nc1ccc(OC(F)(F)F)cc1)c1cnc(C2=CCOCC2)c(-c2cncnc2)c1 [Example 44, 6-(3,6-Dihydro-2h-pyran-4-yl)-5-(pyrimidin-5-yl)-N-(4-(trifluoromethoxy)phenyl)nicotinamide] | 214 |  |  | 6 | 
COc1ccc(C(=O)Nc2ccc(OC(F)(F)F)cc2)cc1-c1cncnc1 [Example 30, 4-methoxy-3-(pyrimidin-5-yl)-N-(4-(trifluoromethoxy)phenyl)benzamide] |  |  |  |  | Mean brain (drug concentration in brain) [4]: 4471 pmol/g; concentration at 5 min [4]: 5390 nM; IC50 ([1]; 48 h): 849 nM; IC50 (Ba/F3-BCR-ABL1-WT cells; 48 h): 4.1 nM
O=C(Nc1ccc(OC(F)(F)F)cc1)c1cnc(C(F)(F)F)c(-c2cncnc2)c1 [Example 57, 5-(Pyrimidin-5-yl)-N-(4-(trifluoromethoxy)phenyl)-6-(trifluoromethyl)nicotinamide] | 703 |  |  | 22 | 
O=C(Nc1ccc(OC(F)(F)Cl)cc1)c1cnc(OC2CCOCC2)c(-c2cncnc2)c1 [Example 67, N-(4-(Chlorodifluoromethoxy)phenyl)-5-(pyrimidin-5-yl)-6-((tetrahydro-2h-pyran-4-yl)oxy)nicotinamide] | 456 |  | 3.8 | 1.2 | 
O=C(Nc1ccc(OC(F)(F)F)cc1)c1cnc(C2CCOCC2)c(-c2cncnc2)c1 [Example 45, 5-(Pyrimidin-5-yl)-6-(tetrahydro-2h-pyran-4-yl)-N-(4-(trifluoromethoxy)phenyl)nicotinamide] | 460 |  |  |  | 
Cc1ccc(C(=O)Nc2ccc(OC(F)(F)F)cc2)cc1-n1ccnc1 [Example 16, 3-(1H-Imidazol-1-yl)-4-methyl-N-(4-(trifluoromethoxy)phenyl)benzamide] | 617 | 1.2 |  | 4 | 

Continued, in another order:

IC50 ([1]; 48 hours) [nM] | IC50 (Ba/F3-BCR-ABL1-WT cells; 48 hours) [nM] | IC50 (ABL1 (64-515) [2]) [nM] | IC50 (ABL1 (64-515) [3]) [nM] | Structure (SMILES) | also measured
521 |  |  | 3.6 | O=C(Nc1ccc(OC(F)(F)F)cc1)c1ccc(OCCN2CCOCC2)c(-c2cncnc2)c1 [Example 37, 4-(2-Morpholinoethoxy)-3-(pyrimidin-5-yl)-N-(4-(trifluoromethoxy)phenyl)benzamide] | 
722 |  |  |  | CC(C)(O)c1ncc(C(=O)Nc2ccc(OC(F)(F)F)cc2)cc1-c1cncnc1 [Example 66, 6-(2-Hydroxypropan-2-yl)-5-(pyrimidin-5-yl)-N-(4-(trifluoromethoxy)phenyl)nicotinamide] | 
655 | 38 | 26 |  | O=C(Nc1ccc(OC(F)(F)F)cc1)c1cncc(-c2cncc(F)c2)c1 [Example 75, 5′-Fluoro-N-(4-(trifluoromethoxy)phenyl)-[3,3′-bipyridine]-5-carboxamide] | 
363 | 18 | 6.2 | 9 | N#CC1(c2ncc(C(=O)Nc3ccc(OC(F)(F)F)cc3)cc2-c2cncnc2)CCC1 [Example 48, 6-(1-Cyanocyclobutyl)-5-(pyrimidin-5-yl)-N-(4-(trifluoromethoxy)phenyl)nicotinamide] | 
754 |  | 9.4 | 49 | CCOc1ncc(C(=O)Nc2ccc(OC(F)(F)F)cc2)cc1-c1cncnc1 [Example 58, 6-Ethoxy-5-(pyrimidin-5-yl)-N-(4-(trifluoromethoxy)phenyl)nicotinamide] | 
488 |  | 9.9 | 10 | O=C(Nc1ccc(OC(F)(F)F)cc1)c1cnc(Cl)c(-c2cncnc2)c1 [Example 56, 6-Chloro-5-(pyrimidin-5-yl)-N-(4-(trifluoromethoxy)phenyl)nicotinamide] | 
306 | 2.1 | 3.5 | 8.5 | Cc1ccc(C(=O)Nc2ccc(OC(F)(F)F)cc2)cc1-c1cncnc1 [Example 14, 4-Methyl-3-(pyrimidin-5-yl)-N-(4-(trifluoromethoxy)phenyl)benzamide] | 
563 | 3.9 |  | < 3 | O=C(Nc1ccc(SC(F)(F)F)cc1)c1cccc(-c2cncnc2)c1 [Example 11, 3-(Pyrimidin-5-yl)-N-(4-((trifluoromethyl)thio)phenyl)benzamide] | Mean brain (drug concentration in brain) [4]: 7341 pmol/g; Kp at 5 min [4]: 4.99; concentration at 5 min [4]: 1470 nM
